Data on 19 molecules can be found in US12595248B2, “PRMT5 inhibitors” (Merck Sharp & Dohme LLC, priority 2019, dated 2026).

Where two headings read alike, the source gives them in different places.

Test [1] has as its target T1, PRMT5-MEP50 enzyme complex (Homo sapiens, UniProt O14744).
T1 construct: Full-length (FL)-PRMT5-MEP50 enzyme complex (recombinant proteins from baculovirus-transfected Sf21 cells: FL-PRMT5; MW=73837 kDa and FL-MEP50; MW=38614); made in house; host or cells: baculovirus-transfected Sf21 cells
Description: PRMT5-MEP50 Enzyme Methylation Assay (Version B). Type of test: biochemical. The procedure:
PRMT5-MEP50 Enzyme Methylation Assay (Version B)
PRMT5-MEP50 biochemical assay is a direct measurement of the methylation activity of the enzyme complex on a short peptide substrate derived from the N-terminus of H4 histone. Methylation experiment was performed with recombinant PRMT5-MEP50 protein complex. The assessment of inhibitory effect (EC50) of small molecules was measured by the effectiveness of the compounds to inhibit this reaction.
In this assay, the potency (EC50) of each compound was determined from a twenty-point (1:2 serial dilution; top compound concentration of 100000 nM) titration curve using the following outlined procedure. To each well of a white ProxiPlus 384 well-plate, 100 nL of compound (1% DMSO in final assay volume of 10 μL) was dispensed, followed by the addition of 8 μL of 1× assay buffer (50 mM Bicine pH 8.0, 1 mM DTT, 0.004% Tween20, 0.01% BSA) containing 0.625 nM of Full-length (FL)-PRMT5-MEP50 enzyme complex (recombinant proteins from baculovirus-transfected Sf21 cells: FL-PRMT5; MW=[…] and FL-MEP50; MW=38614). Plates were sealed and placed in a 37° C. humidified chamber for 30 minutes pre-incubation with compounds. Subsequently, each reaction was initiated by the addition of 2 μL 1× assay buffer containing 375 nM biotinylated H4R3 (MeI) peptide, and 75 μM S-(5′-Adenosyl)-L-Methionine Chloride (SAM). The final reaction in each well of 10 μL consists of 0.5 nM PRMT5-MEP50, 75 nM biotinylated-peptide, and 15 μM SAM. Methylation reactions were allowed to proceed for 150 minutes in a sealed plate at 37° C. Reactions were immediately quenched by the addition of 1 μL of 10% formic acid. Plates were then frozen and shipped to SAMDI™ Tech Inc. to determine the percent conversion from […]. Dose-response curves were generated by plotting percent effect (% product conversion; Y-axis) vs. Log 10 compound concentrations (X-axis). EC50 values were determined by non-linear regression according to models for either sigmoidal (4 parameters) or biphasic (7 parameters) dose-response curves.

For the next test, the target named is T2, PRMT5 (Homo sapiens, UniProt O14744).
T2 construct: seeded with 4000 MCF-7 cells in 30 μl media; endogenous in cells; host or cells: MCF-7 cells
T2 sequence (O14744 whole entry): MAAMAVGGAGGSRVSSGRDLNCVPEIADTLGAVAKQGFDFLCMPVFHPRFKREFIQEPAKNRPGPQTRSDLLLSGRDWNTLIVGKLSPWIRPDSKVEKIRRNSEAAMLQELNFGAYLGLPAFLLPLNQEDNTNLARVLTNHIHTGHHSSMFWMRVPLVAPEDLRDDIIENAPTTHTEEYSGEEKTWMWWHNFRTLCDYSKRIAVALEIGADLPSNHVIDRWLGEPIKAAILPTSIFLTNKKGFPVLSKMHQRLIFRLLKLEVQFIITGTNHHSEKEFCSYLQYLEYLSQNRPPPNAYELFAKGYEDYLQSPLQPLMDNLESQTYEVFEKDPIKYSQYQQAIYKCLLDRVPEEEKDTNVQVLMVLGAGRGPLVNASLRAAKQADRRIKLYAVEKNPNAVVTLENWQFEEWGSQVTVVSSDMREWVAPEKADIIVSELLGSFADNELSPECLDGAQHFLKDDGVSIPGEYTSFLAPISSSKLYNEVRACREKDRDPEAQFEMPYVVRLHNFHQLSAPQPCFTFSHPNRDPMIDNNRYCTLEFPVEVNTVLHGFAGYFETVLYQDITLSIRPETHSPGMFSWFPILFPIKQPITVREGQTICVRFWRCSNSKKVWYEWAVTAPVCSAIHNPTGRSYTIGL
T2 sequence (Q9BQA1 whole entry partner): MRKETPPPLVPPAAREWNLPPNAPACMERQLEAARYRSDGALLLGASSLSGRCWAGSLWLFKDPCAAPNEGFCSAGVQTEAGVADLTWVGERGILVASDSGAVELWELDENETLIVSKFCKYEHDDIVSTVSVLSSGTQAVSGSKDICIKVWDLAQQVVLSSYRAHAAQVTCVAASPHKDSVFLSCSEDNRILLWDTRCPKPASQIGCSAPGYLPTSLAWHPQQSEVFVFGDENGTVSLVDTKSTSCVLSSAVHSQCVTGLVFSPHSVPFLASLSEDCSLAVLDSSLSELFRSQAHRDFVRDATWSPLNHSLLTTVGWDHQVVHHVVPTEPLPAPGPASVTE
Description: PRMT5 Cell Target Engagement (TE) Assay. It is filed as cell-based. To be noted: MCF-7 cells, treated for 3 days, symmetric dimethylation of arginine (SDMA) by high content imaging. The source says: PRMT5 Cell Target Engagement (TE) Assay
The PRMT5 TE assay is a biomarker assay for identifying compounds that inhibit symmetric dimethylation of arginine (SDMA) of PRMT5 substrates. The following substrates have been reported for PRMT5: histone H2A and H4 R3, Histone H3 R2, Histone H3 R8, spliceosome Sm proteins, ribosomal protein RPS10, p53, FEN1, nucleoplasmin, nucleolin, EGFR and EBNA. The assay focuses on detecting symmetrically dimethylated nuclear proteins using high content imaging technology. Detection of the expression of symmetrically dimethylated nuclear proteins is through a mixture of primary rabbit monoclonal antibodies to SDMA (CST 13222), which in turn recognized by an Alexafluor 488 dye-conjugated anti-rabbit IgG secondary antibody. The IN Cell Analyzer 2200 or Opera-Phenix measures nuclear Alexafluor 488 fluorescent dye intensity that is directly related to the level of expression of symmetrically dimethylated nuclear proteins at the single cell level. Nuclear AF488 dye intensities are compared to the mean value for DMSO treated cells (MIN) to report percent of inhibition for each compound-treated well.
In this assay, the cell potency (EC50) of each compound was determined from a ten point (1:3 serial dilution; top compound concentration of 10000 nM) titration curve using the following outlined procedure. Each well of a BD falcon collagen coated black/clear bottom 384-well plate was seeded with 4000 MCF-7 cells in 30 μl media and allowed to attach for 5 h. Media is ATCC-formulated Eagle's Minimum Essential Medium, Catalog No. 30-2003. To make the complete growth medium, the following components were added to the base medium: 0.01 mg/mL human recombinant insulin; fetal bovine serum to a final concentration of 10%. Additional 30 μl of media containing 2× compounds were added to each well. Cells were treated for 3 days in 37° C. CO2 incubator. On day 3, cells were fixed with Cytofix, permeabilized with 0.4% Triton-X-100/Cytofix, and washed with D-PBS without Ca/Mg. Cells were blocked with Licor Odessey blocking reagent for 1 h at room temperature, followed by incubation with anti-SDMA (1:1000) antibody at 4° C. overnight. 1° antibody was removed, followed by three washings with DPBS without Ca/Mg and 0.05% Tween20. Hoechst (5 μg/mL), Cell Mask deep stain (1:2000) and Alexa488-conjugated goat anti-rabbit IgG (2 μg/mL) was added for 1 h at room temperature. A final washing step (three washes) was performed before sealing plate for imaging on In Cell Analyzer 2200 or Opera-Phenix. Images from analyzer were uploaded to Columbus (at WP or BOS) for image analysis. IC50 values were determined by 4 parameters robust fit of percent fluorescence units vs. (Log10) compound concentrations.

[2] abbreviates: first of two EC50s: 7 parameters biphasic model, read-out: Enzyme Methylation Assay Version B (EC50_1).
[3] abbreviates: second of two EC50s: 7 parameters biphasic model, read-out: Enzyme Methylation Assay Version B (EC50_2).
The mark [4] stands for this setting: only one EC50 shown: 4 parameters single site sigmoidal model, 30 min pre-incubation, read-out: Enzyme Methylation Assay Version B (EC50).

T1 sequence (O14744 whole entry): as the sequence (O14744 whole entry) above
T1 sequence (Q9BQA1 whole entry partner): as the sequence (Q9BQA1 whole entry partner) above

Consider `O=C(c1cn2cc(Br)ccc2n1)N1CC[C@@H](N2CCc3ccccc3C2)[C@H](O)C1` (single isomer, unassigned) [Example 2], for which the EC50 in test [1] (setting [2]) amounted to 13 nM; in test [1] (setting [3]), 5890 nM; at PRMT5, 509 nM.

With `CC(=O)N1CCC(Nc2cc(C(=O)N3CC[C@H](N4CCc5ccccc5C4)[C@@H](O)C3)ccn2)C(F)(F)C1` (single isomer, unassigned) [Example 6], the EC50 in test [1] (setting [2]) amounted to 4.8 nM; in test [1] (setting [3]) it was 2690 nM; at PRMT5, 24 nM.

For `CC(=O)N1CCC(Nc2cc(C(=O)N3CC[C@H](N4CCc5ccccc5C4)[C@@H](O)C3)ccn2)C(F)(F)C1` (single isomer, unassigned) [Example 7], the figures for the EC50 (in test [1] (setting [2]); in test [1] (setting [3]); at PRMT5) were 16 nM, 8570 nM and 326 nM, respectively.

As to `CC(=O)N1CCC(Nc2cc(C(=O)N3CC[C@@H](N4CCc5ccccc5C4)[C@H](O)C3)ccn2)C(F)(F)C1` (single isomer, unassigned) [Example 8], the EC50 in test [1] (setting [2]) was ~571 nM; in test [1] (setting [3]), > 100000 nM; on PRMT5, 9290 nM.

With `CC(=O)N1CCC(Nc2cc(C(=O)N3CC[C@@H](N4CCc5ccccc5C4)[C@H](O)C3)ccn2)C(F)(F)C1` (single isomer, unassigned) [Example 9], the EC50 in test [1] (setting [2]) stood at 61 nM; in test [1] (setting [3]) it was 8790 nM; at PRMT5 it was 1680 nM.

In the case of `CCC1Oc2ccc(C(=O)N3CC[C@H](N4CCc5ccccc5C4)[C@@H](O)C3)cc2NC1=O` (single isomer, unassigned) [Example 10], the EC50 is 6.4 nM in test [1] (setting [2]), 4620 nM in test [1] (setting [3]) and 119 nM on PRMT5.

In the case of `CCC1Oc2ccc(C(=O)N3CC[C@H](N4CCc5ccccc5C4)[C@@H](O)C3)cc2NC1=O` (single isomer, unassigned) [Example 11], the EC50 in test [1] (setting [2]) is 1.8 nM; in test [1] (setting [3]) it was 1070 nM; at PRMT5, 4.9 nM.

Regarding `CCC1Oc2ccc(C(=O)N3CC[C@@H](N4CCc5ccccc5C4)[C@H](O)C3)cc2NC1=O` (single isomer, unassigned) [Example 12], the results for the EC50 (in test [1] (setting [2]); in test [1] (setting [3]); at PRMT5) were 106 nM, 45700 nM and 6070 nM, respectively.

Take `CCC1Oc2ccc(C(=O)N3CC[C@@H](N4CCc5ccccc5C4)[C@H](O)C3)cc2NC1=O` (single isomer, unassigned) [Example 13]: the EC50 in test [1] (setting [2]) was ~14 nM; in test [1] (setting [3]), 17600 nM; on PRMT5, 641 nM.

Consider `CC(=O)N1CCC(Nc2nccc(C(=O)N3CC[C@H](N4CCc5ccccc5C4)[C@@H](O)C3)c2F)C(F)(F)C1` (single isomer, unassigned) [Example 14], for which the EC50 in test [1] (setting [2]) was ~20 nM; in test [1] (setting [3]), 17200 nM; at PRMT5, 275 nM.

Take `CC(=O)N1CCC(Nc2nccc(C(=O)N3CC[C@H](N4CCc5ccccc5C4)[C@@H](O)C3)c2F)C(F)(F)C1` (single isomer, unassigned) [Example 15]: the EC50 worked out at 6.8 nM in test [1] (setting [2]), 3720 nM in test [1] (setting [3]) and 57 nM at PRMT5.

For the molecule `CC(=O)N1CCC(Nc2nccc(C(=O)N3CC[C@@H](N4CCc5ccccc5C4)[C@H](O)C3)c2F)C(F)(F)C1` (single isomer, unassigned) [Example 16], the results for the EC50 (in test [1] (setting [2]); in test [1] (setting [3]); on PRMT5) were 160 nM, 83200 nM and 5730 nM, respectively.

Regarding `CC(=O)N1CCC(Nc2nccc(C(=O)N3CC[C@@H](N4CCc5ccccc5C4)[C@H](O)C3)c2F)C(F)(F)C1` (single isomer, unassigned) [Example 17], the EC50 is ~191 nM in test [1] (setting [2]), > 100000 nM in test [1] (setting [3]) and 8420 nM on PRMT5.

In the case of `CC(=O)N1CCC(Nc2cc(C(=O)N3CCC(N4CCc5ccccc5C4)C(O)C3C)ccn2)CC1` (single isomer, unassigned) [Example 20, l-(4-((4-(4-(3,4-dihydroisoquinolin-2(1H)-yl)-3-hydroxy-2-methylpiperidine-1-carbonyl)pyridin-2-yl)amino)piperidin-1-yl)ethan-1-one], the EC50 in test [1] (setting [2]) was 4.4 nM; in test [1] (setting [3]) it was 1500 nM; on PRMT5, 12 nM.

Regarding `CC(=O)N1CCC(Nc2cc(C(=O)N3CCC(N4CCc5ccccc5C4)C(O)C3C)ccn2)CC1` (single isomer, unassigned) [Example 21, 1-(4-((4-(4-(3,4-dihydroisoquinolin-2(1H)-yl)-3-hydroxy-2-methylpiperidine-1-carbonyl)pyridin-2-yl)amino)piperidin-1-yl)ethan-1-one], the EC50 is ~56 nM in test [1] (setting [2]), 25400 nM in test [1] (setting [3]) and 1580 nM on PRMT5.

With `CC(=O)N1CCC(Nc2cc(C(=O)N3CCC(N4Cc5ccccc5C(F)(F)C4)C(O)C3)c(F)cn2)CC1` (single isomer, unassigned) [Example 24, 1-(4-((4-(-4-(4,4-difluoro-3,4-dihydroisoquinolin-2(1H)-yl)-3-hydroxypiperidine-1-carbonyl)-5-fluoropyridin-2-yl)amino)piperidin-1-yl)ethan-1-one], the EC50 was 5560 nM in test [1] (setting [4]) and > 10000 nM on PRMT5.

For `CC(=O)N1CCC(Nc2cc(C(=O)N3CCC(N4Cc5ccccc5C(F)(F)C4)C(O)C3)c(Cl)cn2)CC1` (single isomer, unassigned) [Example 25, l-(4-((5-chloro-4-(-4-(4,4-difluoro-3,4-dihydroisoquinolin-2(1H)-yl)-3-hydroxypiperidine-1-carbonyl)pyridin-2-yl)amino)piperidin-1-yl)ethan-1-one], the EC50 in test [1] (setting [2]) is 841 nM; in test [1] (setting [3]), 33900 nM; at PRMT5, > 10000 nM.

In the case of `O=C(c1ccc(OCC(F)(F)F)nc1)N1CCC(N2Cc3ccccc3C(F)(F)C2)C(O)C1` (single isomer, unassigned) [Example 26, (-4-(4,4-difluoro-3,4-dihydroisoquinolin-2(1H)-yl)-3-hydroxypiperidin-1-yl)(6-(2,2,2-trifluoroethoxy)pyridin-3-yl)methanone], the EC50 in test [1] (setting [4]) was 15200 nM; at PRMT5, > 10000 nM.

Consider `CC(=O)N1CCC(Nc2cc(C(=O)N3CCC(N4Cc5ccccc5C(F)(F)C4)C(O)C3)c(F)cn2)CC1` (single isomer, unassigned) [Example 27, 1-(4-((5-fluoro-4-(-4-(4,4-difluoro-3,4-dihydroisoquinolin-2(1H)-yl)-3-hydroxypiperidine-1-carbonyl)pyridin-2-yl)amino)piperidin-1-yl)ethan-1-one], for which the EC50 in test [1] (setting [4]) was 809 nM; at PRMT5 it was > 10000 nM.
